This is an account of results in ChEMBL document CHEMBL1127767, “Synthesis of 19-hydroxy docetaxel from a novel baccatin” (Bioorg Med Chem Lett, 1994).

In brackets after ≈: the same amount, converted by molar mass.

The term IC50 denotes the concentration at which inhibition is half-maximal.

Experiment [1] is described as follows: Inhibitory activity towards microtubule disassembly relative to paclitaxel evaluated as ID50 compound/ID50 paclitaxel. The class given is functional.
Experiment [2] relates to P388. As to the kind of experiment: Cytotoxicity against P388 leukemia cells was calculated. The class given is functional, cell-based. The following applies: Mus musculus.

Regarding `CC(=O)O[C@@]12CO[C@@H]1C[C@H](O)[C@@]1(C)C(=O)[C@H](O)C3=C(C)[C@@H](OC(=O)[C@H](O)[C@@H](NC(=O)OC(C)(C)C)c4ccccc4)C[C@@](O)([C@@H](OC(=O)c4ccccc4)[C@H]21)C3(C)C`, the ID50 ratio in experiment [1] was found to be 0.6.
As to `CC(=O)O[C@@]12CO[C@@H]1C[C@H](O)[C@@]1(CO)C(=O)[C@H](O)C3=C(C)[C@@H](OC(=O)[C@H](O)[C@@H](NC(=O)OC(C)(C)C)c4ccccc4)C[C@@](O)([C@@H](OC(=O)c4ccccc4)[C@H]21)C3(C)C`, in experiment [2], the IC50 was 0.07 µg/mL (≈ 0.085 µM). Further, the ID50 ratio in experiment [1] came to 0.4.
